Reference: patent publication EP1383793B1 (priority 2000, dated 2001)
Residues, ends and D or L forms follow the SMILES beside them. *: point of attachment. Biotin = O=C1N[C@H]2[C@H](CS[C@H]2CCCCC(=O)*)N1

Experiments:
[1] = biological target: T1, human insulin receptor (HIR) (Homo sapiens, UniProt P06213); assay: 125I-insulin competition binding assay on solubilised purified receptor; details: read-out: Kd (µM) HIR
T1 construct: made in house

[2] = biological target: human IGF-1 receptor (HIGF-1R) (Homo sapiens, UniProt P08069); assay: 125I-IGF-1 competition binding assay on solubilised purified receptor
Chain of human IGF-1 receptor (HIGF-1R) (P08069 31-736 limits assumed): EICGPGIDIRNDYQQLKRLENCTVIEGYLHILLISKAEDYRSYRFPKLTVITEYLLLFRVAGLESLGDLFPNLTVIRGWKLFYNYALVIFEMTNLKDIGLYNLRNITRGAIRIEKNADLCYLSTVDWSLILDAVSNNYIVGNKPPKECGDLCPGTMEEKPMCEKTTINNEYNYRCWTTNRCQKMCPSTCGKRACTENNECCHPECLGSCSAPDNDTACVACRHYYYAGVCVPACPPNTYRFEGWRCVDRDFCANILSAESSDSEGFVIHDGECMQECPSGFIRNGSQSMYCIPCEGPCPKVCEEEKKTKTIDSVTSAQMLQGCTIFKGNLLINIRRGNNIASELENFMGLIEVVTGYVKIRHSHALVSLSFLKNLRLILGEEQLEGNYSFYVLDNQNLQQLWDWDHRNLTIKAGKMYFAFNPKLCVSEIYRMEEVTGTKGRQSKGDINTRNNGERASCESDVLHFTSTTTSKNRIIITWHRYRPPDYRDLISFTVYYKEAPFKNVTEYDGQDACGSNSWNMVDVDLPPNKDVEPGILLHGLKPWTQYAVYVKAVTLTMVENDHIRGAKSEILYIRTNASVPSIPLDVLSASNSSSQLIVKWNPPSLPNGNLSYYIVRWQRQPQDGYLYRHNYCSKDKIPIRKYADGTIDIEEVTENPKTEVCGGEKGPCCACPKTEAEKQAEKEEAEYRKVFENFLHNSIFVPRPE
Chain of human IGF-1 receptor (HIGF-1R) (P08069 741-1367 limits assumed): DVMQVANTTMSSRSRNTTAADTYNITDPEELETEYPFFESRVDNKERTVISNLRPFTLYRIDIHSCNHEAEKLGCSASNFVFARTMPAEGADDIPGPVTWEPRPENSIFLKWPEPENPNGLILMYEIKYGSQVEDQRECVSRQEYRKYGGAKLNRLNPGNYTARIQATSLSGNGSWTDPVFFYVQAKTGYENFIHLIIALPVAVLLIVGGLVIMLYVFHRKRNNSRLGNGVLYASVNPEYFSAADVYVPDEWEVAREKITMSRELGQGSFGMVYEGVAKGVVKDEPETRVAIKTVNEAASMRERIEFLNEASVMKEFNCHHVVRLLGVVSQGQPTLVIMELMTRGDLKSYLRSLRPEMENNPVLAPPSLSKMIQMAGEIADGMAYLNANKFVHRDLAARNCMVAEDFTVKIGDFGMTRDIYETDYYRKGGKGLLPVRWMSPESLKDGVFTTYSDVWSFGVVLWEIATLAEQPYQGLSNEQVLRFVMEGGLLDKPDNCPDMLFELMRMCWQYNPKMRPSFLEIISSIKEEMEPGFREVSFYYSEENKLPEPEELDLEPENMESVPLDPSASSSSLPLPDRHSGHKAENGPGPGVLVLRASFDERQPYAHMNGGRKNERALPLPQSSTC

T1 sequence (P06213 28-758 limits assumed): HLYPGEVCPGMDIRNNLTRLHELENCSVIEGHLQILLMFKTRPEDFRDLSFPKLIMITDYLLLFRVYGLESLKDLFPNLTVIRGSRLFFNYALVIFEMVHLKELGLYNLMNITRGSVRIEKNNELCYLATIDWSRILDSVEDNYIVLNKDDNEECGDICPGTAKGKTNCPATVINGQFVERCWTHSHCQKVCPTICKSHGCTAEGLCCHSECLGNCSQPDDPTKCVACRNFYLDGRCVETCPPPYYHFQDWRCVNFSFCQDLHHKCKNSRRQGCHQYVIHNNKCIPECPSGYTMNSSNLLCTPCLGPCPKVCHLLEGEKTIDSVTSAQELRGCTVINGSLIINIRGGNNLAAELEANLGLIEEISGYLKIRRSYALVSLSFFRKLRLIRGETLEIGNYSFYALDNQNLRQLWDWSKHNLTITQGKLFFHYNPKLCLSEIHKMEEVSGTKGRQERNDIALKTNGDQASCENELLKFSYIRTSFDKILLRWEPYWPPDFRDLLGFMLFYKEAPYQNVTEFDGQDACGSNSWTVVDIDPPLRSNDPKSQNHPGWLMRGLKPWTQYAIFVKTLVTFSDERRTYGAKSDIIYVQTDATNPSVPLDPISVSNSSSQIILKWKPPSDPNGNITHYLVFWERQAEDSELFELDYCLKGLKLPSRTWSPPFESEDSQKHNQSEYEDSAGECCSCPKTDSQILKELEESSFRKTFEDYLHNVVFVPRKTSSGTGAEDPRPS
T1 sequence (P06213 763-1382 limits assumed): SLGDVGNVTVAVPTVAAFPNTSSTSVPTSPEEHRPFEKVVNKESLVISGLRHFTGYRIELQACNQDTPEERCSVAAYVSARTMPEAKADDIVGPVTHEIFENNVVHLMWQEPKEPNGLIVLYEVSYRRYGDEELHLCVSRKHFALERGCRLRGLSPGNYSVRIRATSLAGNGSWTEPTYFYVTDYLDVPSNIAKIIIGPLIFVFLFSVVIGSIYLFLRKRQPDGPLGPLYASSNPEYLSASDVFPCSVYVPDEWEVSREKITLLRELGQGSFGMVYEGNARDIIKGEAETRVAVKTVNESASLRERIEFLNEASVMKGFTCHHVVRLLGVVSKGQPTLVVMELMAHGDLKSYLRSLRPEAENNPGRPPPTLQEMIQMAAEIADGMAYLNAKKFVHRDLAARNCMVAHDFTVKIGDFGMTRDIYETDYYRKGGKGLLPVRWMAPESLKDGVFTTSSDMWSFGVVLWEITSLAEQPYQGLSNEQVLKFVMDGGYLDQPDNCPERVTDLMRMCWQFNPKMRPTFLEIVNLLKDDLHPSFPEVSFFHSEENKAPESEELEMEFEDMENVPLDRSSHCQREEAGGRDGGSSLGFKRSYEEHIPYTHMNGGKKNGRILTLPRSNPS

Row | SMILES | Kd [1] [µM] | Kd [2] [µM]
1 | CC(C)C[C@H](NC(=O)[C@H](C)NC(=O)[C@H](Cc1c[nH]c2ccccc12)NC(=O)[C@H](CO)NC(=O)[C@H](Cc1c[nH]cn1)NC(=O)CNC(=O)[C@@H](N)CCCCN)C(=O)N[C@H](C(=O)N[C@@H](CCCNC(=N)N)C(=O)N[C@@H](Cc1c[nH]cn1)C(=O)N[C@H](C(=O)N[C@@H](CC(=O)O)C(=O)N[C@@H](CCCNC(=N)N)C(=O)N[C@@H](CC(C)C)C(=O)N[C@@H](Cc1ccccc1)C(=O)N[C@@H](Cc1ccc(O)cc1)C(=O)N[C@@H](CCC(=O)O)C(=O)N[C@@H](Cc1c[nH]c2ccccc12)C(=O)N[C@@H](Cc1ccccc1)C(=O)N[C@@H](CC(=O)O)C(=O)N[C@@H](CC(C)C)C(=O)N[C@@H](CCCCN)C(=O)N[C@@H](CCCCNC(=O)CCCC[C@@H]1SC[C@@H]2NC(=O)N[C@@H]21)C(N)=O)C(C)C)C(C)C [Clone D104] (H-KGHSWALVRHVDRLFYEWFDLKK(Biotin)-NH2) | 20 | > 20
2 | C[C@@H](O)[C@H](NC(=O)[C@@H]1CCCN1C(=O)[C@H](CCCCN)NC(=O)[C@H](CC(=O)O)NC(=O)[C@H](CCCNC(=N)N)NC(=O)[C@@H](N)CCCCN)C(=O)N[C@@H](CC(=O)O)C(=O)N[C@@H](CCC(N)=O)C(=O)N[C@@H](CCC(=O)O)C(=O)N[C@@H](CCC(=O)O)C(=O)N[C@@H](CCC(N)=O)C(=O)N[C@@H](CC(N)=O)C(=O)N[C@@H](Cc1c[nH]c2ccccc12)C(=O)N[C@@H](CO)C(=O)N[C@@H](Cc1ccccc1)C(=O)N[C@@H](Cc1ccc(O)cc1)C(=O)N[C@@H](CCC(=O)O)C(=O)N[C@@H](Cc1c[nH]c2ccccc12)C(=O)N[C@@H](Cc1ccccc1)C(=O)N[C@@H](CCCNC(=N)N)C(=O)N[C@@H](Cc1c[nH]cn1)C(=O)N[C@@H](CCCCN)C(=O)N[C@@H](CCCCNC(=O)CCCC[C@@H]1SC[C@@H]2NC(=O)N[C@@H]21)C(N)=O [Clone D105] (H-KRDKPTDQEEQNWSFYEWFRHKK(Biotin)-NH2) | 2.8 | 12
3 | CC(C)C[C@H](NC(=O)[C@H](CCC(N)=O)NC(=O)[C@H](CCC(N)=O)NC(=O)[C@H](CO)NC(=O)[C@H](CCCNC(=N)N)NC(=O)[C@H](CS)NC(=O)[C@H](CC(N)=O)NC(=O)[C@H](Cc1c[nH]c2ccccc12)NC(=O)[C@H](Cc1ccccc1)NC(=O)[C@@H](NC(=O)[C@@H](N)CCCCN)C(C)C)C(=O)N[C@@H](CC(=O)O)C(=O)N[C@@H](Cc1ccccc1)C(=O)N[C@@H](Cc1ccc(O)cc1)C(=O)N[C@@H](CCC(=O)O)C(=O)N[C@@H](Cc1c[nH]c2ccccc12)C(=O)N[C@@H](Cc1ccccc1)C(=O)N[C@@H](CCC(=O)O)C(=O)N[C@@H](CCC(N)=O)C(=O)N[C@@H](C)C(=O)N[C@@H](C)C(=O)N[C@@H](CCCCN)C(=O)N[C@@H](CCCCNC(=O)CCCC[C@@H]1SC[C@@H]2NC(=O)N[C@@H]21)C(N)=O [Clone D106] (H-KVFWNCRSQQLDFYEWFEQAAKK(Biotin)-NH2) | 0.97 | 6.2
4 | CC(C)C[C@H](NC(=O)[C@H](C)NC(=O)[C@H](C)NC(=O)[C@H](CCC(N)=O)NC(=O)[C@@H]1CCCN1C(=O)[C@@H](NC(=O)[C@@H](NC(=O)[C@H](Cc1ccc(O)cc1)NC(=O)[C@H](Cc1c[nH]cn1)NC(=O)[C@H](CO)NC(=O)[C@H](CCC(=O)O)NC(=O)[C@H](CC(C)C)NC(=O)[C@@H](N)CCCCN)C(C)C)C(C)C)C(=O)N[C@@H](CC(=O)O)C(=O)N[C@@H](CCCNC(=N)N)C(=O)N[C@@H](CC(C)C)C(=O)N[C@@H](Cc1ccccc1)C(=O)N[C@@H](Cc1ccc(O)cc1)C(=O)N[C@@H](CO)C(=O)N[C@@H](Cc1c[nH]c2ccccc12)C(=O)N[C@@H](Cc1ccccc1)C(=O)N[C@@H](CO)C(=O)N[C@@H](CCCCN)C(=O)N[C@@H](CCCCNC(=O)CCCC[C@@H]1SC[C@@H]2NC(=O)N[C@@H]21)C(N)=O [Clone D107] (H-KLESHYVVPQAALDRLFYSWFSKK(Biotin)-NH2) | 1.1 | 9.7
5 | CC(C)C[C@H](NC(=O)[C@H](CCC(N)=O)NC(=O)[C@H](CCCNC(=N)N)NC(=O)[C@H](CO)NC(=O)[C@H](Cc1ccccc1)NC(=O)[C@H](Cc1c[nH]c2ccccc12)NC(=O)CNC(=O)[C@H](Cc1ccc(O)cc1)NC(=O)[C@H](Cc1ccccc1)NC(=O)[C@@H](N)CCCCN)C(=O)N[C@@H](CO)C(=O)N[C@@H](CC(C)C)C(=O)N[C@H](C(=O)N1CCC[C@H]1C(=O)N[C@@H](CCCNC(=N)N)C(=O)N[C@@H](CC(=O)O)C(=O)N[C@@H](CC(=O)O)C(=O)N[C@@H](Cc1c[nH]c2ccccc12)C(=O)NCC(=O)N[C@@H](CC(C)C)C(=O)N1CCC[C@H]1C(=O)N[C@@H](CCCCN)C(=O)N[C@@H](CCCCNC(=O)CCCC[C@@H]1SC[C@@H]2NC(=O)N[C@@H]21)C(N)=O)[C@@H](C)O [Clone D108] (H-KFYGWFSRQLSLTPRDDWGLPKK(Biotin)-NH2) | 2.3 | 19
6 | CC(C)C[C@H](NC(=O)CNC(=O)[C@H](CC(=O)O)NC(=O)[C@H](CCC(N)=O)NC(=O)[C@H](CCCCN)NC(=O)[C@H](CC(N)=O)NC(=O)[C@H](CO)NC(=O)[C@@H](NC(=O)[C@H](CC(C)C)NC(=O)CNC(=O)[C@@H]1CCCN1C(=O)[C@H](C)NC(=O)[C@H](CO)NC(=O)[C@@H](N)CCCCN)C(C)C)C(=O)N[C@@H](Cc1ccccc1)C(=O)N[C@@H](Cc1ccc(O)cc1)C(=O)N[C@@H](CO)C(=O)N[C@@H](Cc1c[nH]c2ccccc12)C(=O)N[C@@H](Cc1ccccc1)C(=O)N[C@@H](CCCNC(=N)N)C(=O)N[C@@H](CCC(=O)O)C(=O)N[C@@H](CCCCN)C(=O)N[C@@H](CCCCNC(=O)CCCC[C@@H]1SC[C@@H]2NC(=O)N[C@@H]21)C(N)=O [Clone D109] (H-KSAPGLVSNKQDGLFYSWFREKK(Biotin)-NH2) | 3.6 | 12
7 | CC(C)[C@H](NC(=O)[C@H](Cc1ccccc1)NC(=O)[C@H](Cc1c[nH]c2ccccc12)NC(=O)[C@H](CC(=O)O)NC(=O)[C@H](Cc1ccc(O)cc1)NC(=O)[C@H](Cc1ccccc1)NC(=O)[C@H](CC(N)=O)NC(=O)[C@H](CCCCN)NC(=O)[C@H](C)NC(=O)[C@@H](N)CO)C(=O)N[C@@H](CCCCN)C(=O)N[C@@H](CCCCNC(=O)CCCC[C@@H]1SC[C@@H]2NC(=O)N[C@@H]21)C(N)=O [Clone D114] (H-SAKNFYDWFVKK(Biotin)-NH2) | 8.1 | > 20
8 | CSCC[C@H](NC(=O)[C@H](Cc1ccccc1)NC(=O)[C@H](Cc1c[nH]c2ccccc12)NC(=O)[C@H](CC(=O)O)NC(=O)[C@H](Cc1ccc(O)cc1)NC(=O)[C@H](Cc1ccccc1)NC(=O)[C@H](CC(N)=O)NC(=O)[C@H](CCCCN)NC(=O)[C@H](CC(=O)O)NC(=O)[C@H](C)N)C(=O)N[C@@H](C)C(=O)N[C@@H](C)C(=O)N[C@@H](CCCCN)C(=O)N[C@@H](CCCCNC(=O)CCCC[C@@H]1SC[C@@H]2NC(=O)N[C@@H]21)C(N)=O [Clone D115] (H-ADKNFYDWFMAAKK(Biotin)-NH2) | 8.1 | > 20
9 | CC(C)[C@H](NC(=O)[C@H](Cc1ccccc1)NC(=O)[C@H](Cc1c[nH]c2ccccc12)NC(=O)[C@H](CC(=O)O)NC(=O)[C@H](Cc1ccc(O)cc1)NC(=O)[C@H](Cc1ccccc1)NC(=O)[C@H](CC(N)=O)NC(=O)[C@H](CCC(=O)O)NC(=O)[C@H](Cc1c[nH]cn1)NC(=O)[C@H](Cc1ccccc1)NC(=O)[C@@H](N)CCCCN)C(=O)N[C@@H](CCCNC(=N)N)C(=O)N[C@@H](CCC(N)=O)C(=O)N[C@H](C(=O)N[C@@H](CO)C(=O)N[C@@H](CCCCN)C(=O)N[C@@H](CCCCNC(=O)CCCC[C@@H]1SC[C@@H]2NC(=O)N[C@@H]21)C(N)=O)C(C)C [Clone D117K] | 0.82 | 9.1
